Assay results from paper PMC6001238, “Iterative Chemical Engineering of Vancomycin Leads to Novel Vancomycin Analogs With a High in Vitro Therapeutic Index” (Frontiers in Microbiology, 2018).
≈ marks a conversion by molar mass, not a printed value. Where two headings read alike, the source gives them in different places.

Columns and labels:
S. aureus VISA/HIP5827 = assay: MIC, broth microdilution, vancomycin-intermediate S. aureus VISA HIP5827; assay type: cell-based, Staphylococcus aureus
Procedure, shortened: (§1)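 Assayed by broth microdilution under CLSI antimicrobial testing rules. One case paired the analog or control drug with vancomycin at a 10 μM final concentration; water and inoculum-free broth were controls.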

VE 149 (VanB) = assay: MIC, VanB-type VRE strain VE 149; assay type: cell-based, Enterococcus; conditions: Enterococcus; VE 149, VanB; read-out: MIC
Procedure: (§2) The minimum inhibitory concentration (MIC) was determined using the broth microdilution method according to the antimicrobial susceptibility testing standards of the clinical and laboratory standards institute ([Clinical and Laboratory Standards Institute [CLSI], 2012]). Ultrapure water and non-inoculated broth were used as controls. In one case, a final concentration of 10 μM vancomycin was included with the vancomycin analog or control antibiotic.

E. faecalis VRE 37 = assay: MIC, broth microdilution, vancomycin-resistant E. faecalis VRE 37 (VanA); assay type: cell-based, Enterococcus faecalis
Procedure, shortened: as §1

S. aureus VRSA = assay: MIC, broth microdilution, vancomycin-resistant S. aureus (VRSA); assay type: cell-based, Staphylococcus aureus
Procedure, shortened: as §1

VE 157 (VanB) = assay: MIC, VanB-type VRE strain VE 157; assay type: cell-based, Enterococcus; conditions: Enterococcus; VE 157, VanB; read-out: MIC
Procedure: as §2

E. faecalis VRE 29 = assay: MIC, broth microdilution, vancomycin-resistant E. faecalis VRE 29 (VanA); assay type: cell-based, Enterococcus faecalis
Procedure, shortened: as §1

E. faecalis VSE 1 = assay: MIC, broth microdilution, vancomycin-sensitive E. faecalis (VSE 1); assay type: cell-based, Enterococcus faecalis
Procedure, shortened: as §1

[1] = test system: human T-lymphocyte (CEM) cells; assay: Cytostatic activity, CEM cell proliferation; assay type: cell-based; conditions: Homo sapiens, CCRF-CEM, 72 h; mean ± SD of three experiments; highest concentration tested 250 µM; 3 days; read-out: Toxicity (IC50) CEM
Procedure, shortened: (§3)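 Suspensions (300,000–500,000 cells/mL) combined with equal volumes of diluted compound; 37°C; L1210 2 d / CEM 3 d / HeLa 4 d; counted by Coulter counter; IC50 vs untreated wells.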

E. faecalis VRE 53 = assay: MIC, broth microdilution, vancomycin-resistant E. faecalis VRE 53 (VanA); assay type: cell-based, Enterococcus faecalis
Procedure, shortened: as §1

E. faecalis VRE 6 = assay: MIC, broth microdilution, vancomycin-resistant E. faecalis VRE 6 (VanA); assay type: cell-based, Enterococcus faecalis
Procedure, shortened: as §1

VE 150 (VanB) = assay: MIC, VanB-type VRE strain VE 150; assay type: cell-based, Enterococcus; conditions: Enterococcus; VE 150, VanB; read-out: MIC
Procedure: as §2

[2] = test system: L1210, CEM and HeLa cell lines; assay: Cytostatic activity, average or summary over L1210, CEM and HeLa; assay type: cell-based
Procedure, shortened: as §3

33 clinical VRE isolates = assay: MIC against a set of 33 clinical VRE isolates (range, MIC50, TI); assay type: cell-based, Enterococcus faecalis
Procedure: as §2

MRSA [3] = assay: Minimum bactericidal concentration against MRSA; assay type: cell-based, Staphylococcus aureus
Procedure: Plates were incubated overnight at 37°C and colony growth was inspected.

[4] = test system: S. aureus VSSA (ATCC 6538); assay: MIC, broth microdilution, vancomycin-sensitive S. aureus (VSSA/MSSA, ATCC 6538); assay type: cell-based, Staphylococcus aureus
Procedure, shortened: as §1

MRSA KS1 = assay: MIC, broth microdilution, MRSA KS1; assay type: cell-based, Staphylococcus aureus
Procedure, shortened: as §1

MRSA KS6 = assay: MIC, broth microdilution, MRSA KS6; assay type: cell-based, Staphylococcus aureus
Procedure, shortened: as §1

MRSA [5] = assay: Time-kill curves, MRSA at 4x MIC; assay type: cell-based, Staphylococcus aureus; conditions: 1-24 h
Procedure: Time-kill curves were determined based on the CLSI guidelines ([Clinical and Laboratory Standards Institute [CLSI], 1999]). Single colonies grown overnight at 37°C were resuspended in Ca^2+-adjusted (0.05 mg/mL) Mueller Hinton broth up to an optical density (625 nm) of 0.08–00.10 (corresponding to the 0.5 McFarland standard), followed by a 10-fold dilution in the same broth. Subsequently, 0.2 mL inoculum was added to 1.7 mL Ca^2+-adjusted (0.05 mg/mL) Mueller Hinton broth, followed by addition of the antibacterial compound (0.1 mL). The final concentration of the antibacterial compound corresponded to the 4x MIC value for that compound. For the antibiotic-free control, the compound was replaced by an equal volume of ultrapure water. The final inoculum concentration was approximately 10^6 CFU/mL. The cultures were continuously shaken at 37°C. After 1, 2, 4, 6, 8, and 24 h, a 0.1 mL aliquot was removed, serially diluted in cold 0.9% w/v NaCl and plated on BHI (VRE) and LB (MRSA) agar plates. Plates were incubated overnight at 37°C and colonies were counted.

VE 82 (VanC1) = assay: MIC, VanC1-type VRE strain VE 82; assay type: cell-based, Enterococcus gallinarum; conditions: Enterococcus gallinarum; VE 82, VanC1; read-out: MIC
Procedure: as §2

[6] = test system: 24 clinical MRSA isolates; assay: MIC against a set of 24 clinical MRSA isolates (range, MIC50, TI); assay type: cell-based, Staphylococcus aureus
Procedure: as §2

VE 148 (VanB) = assay: MIC, VanB-type VRE strain VE 148; assay type: cell-based, Enterococcus; conditions: Enterococcus; VE 148, VanB; read-out: MIC
Procedure: as §2

[7] = test system: Murine leukemia (L1210) cells; assay: Cytostatic activity, L1210 cell proliferation; assay type: cell-based; conditions: Mus musculus, L1210, 48 h; mean ± SD of three experiments; highest concentration tested 250 µM; 2 days; read-out: Toxicity (IC50) L1210
Procedure, shortened: as §3

VE 152 (VanB) = assay: MIC, VanB-type VRE strain VE 152; assay type: cell-based, Enterococcus; conditions: Enterococcus; VE 152, VanB; read-out: MIC
Procedure: as §2

[8] = test system: human cervix carcinoma (HeLa) cells; assay: Cytostatic activity, HeLa cell proliferation; assay type: cell-based; conditions: Homo sapiens, HeLa, 96 h; mean ± SD of three experiments; highest concentration tested 250 µM; 4 days; read-out: Toxicity (IC50) HeLa
Procedure, shortened: as §3

MRSA KS89 = assay: MIC, broth microdilution, MRSA KS89; assay type: cell-based, Staphylococcus aureus
Procedure, shortened: as §1

MRSA KS2 = assay: MIC, broth microdilution, MRSA KS2; assay type: cell-based, Staphylococcus aureus
Procedure, shortened: as §1

CC(=O)NC[C@H]1CN(c2ccc(N3CCOCC3)c(F)c2)C(=O)O1 [Linezolid, reference compound]
MIC (S. aureus VISA/HIP5827; Staphylococcus aureus, VISA): 3.13 µM (≈ 1.06 µg/mL) | MIC-fold improvement vs. vancomycin (S. aureus VISA/HIP5827; VISA/HIP5827, ratio of MIC of vancomycin and MIC of analogue): 2 | MIC (VE 149 (VanB)): 12.5 µM (≈ 4.22 µg/mL) | MIC (E. faecalis VRE 37; Enterococcus faecalis, VRE): 6.25 µM (≈ 2.11 µg/mL) | MIC-fold improvement vs. vancomycin (E. faecalis VRE 37; VRE 37, ratio of MIC of vancomycin and MIC of analogue): 64 | MIC (S. aureus VRSA; Staphylococcus aureus VRSA): 6.25 µM (≈ 2.11 µg/mL) | MIC-fold improvement vs. vancomycin (S. aureus VRSA; VRSA, ratio of MIC of vancomycin and MIC of analogue): 16 | MIC (VE 157 (VanB)): 12.5 µM (≈ 4.22 µg/mL) | MIC (E. faecalis VRE 29; Enterococcus faecalis, VRE): 6.25 µM (≈ 2.11 µg/mL) | MIC-fold improvement vs. vancomycin (E. faecalis VRE 29; VRE 29, ratio of MIC of vancomycin and MIC of analogue): 64 | MIC (E. faecalis VSE 1; VSE1, Enterococcus faecalis VSE 1 (vancomycin-sensitive), read-out: MIC): > 3.13 µM | MIC-fold improvement vs. vancomycin (E. faecalis VSE 1; VSE 1, ratio of MIC of vancomycin and MIC of analogue): <0.5 | IC50 [1]: > 250 µM | MIC (E. faecalis VRE 53; Enterococcus faecalis, VRE): 6.25 µM (≈ 2.11 µg/mL) | MIC-fold improvement vs. vancomycin (E. faecalis VRE 53; VRE 53, ratio of MIC of vancomycin and MIC of analogue): 64 | MIC (E. faecalis VRE 6; Enterococcus faecalis VRE 6 (vancomycin-resistant), read-out: MIC): 12.5 µM (≈ 4.22 µg/mL) | MIC-fold improvement vs. vancomycin (E. faecalis VRE 6; VRE 6, ratio of MIC of vancomycin and MIC of analogue): 16 | MIC (VE 150 (VanB)): 12.5 µM (≈ 4.22 µg/mL) | IC50 ([2]; average IC50 used for TI in Table S5, >250 entered as 250, read-out: IC50): 208 µM | IC50 ([2]; average of L1210, CEM and HeLa, read-out: Toxicity (IC50) Average): 208 µM | MIC Range (33 clinical VRE isolates; 33 clinical VRE isolates): 3.13 to 50 µM | MIC50 (33 clinical VRE isolates; Enterococcus, median MIC, 33 clinical VRE isolates, read-out: MIC50): 6.25 µM (≈ 2.11 µg/mL) | TI (IC50/MIC50) (33 clinical VRE isolates; in vitro therapeutic index, VRE): 33 | MBC relative to MIC (MRSA [3]): more than four times higher than the corresponding MIC | MIC ([4]; ATCC6538, Staphylococcus aureus VSSA, read-out: MIC): > 3.13 µM | MIC-fold improvement vs. vancomycin ([4]; VSSA, ratio of MIC of vancomycin and MIC of analogue): <0.2 | MIC-fold improvement vs. vancomycin (MRSA KS1; MRSA KS1, ratio of MIC of vancomycin and MIC of analogue): 0.05 | MIC (MRSA KS1; Staphylococcus aureus MRSA KS1, read-out: MIC): 12.5 µM (≈ 4.22 µg/mL) | MIC-fold improvement vs. vancomycin (MRSA KS6; MRSA KS6, ratio of MIC of vancomycin and MIC of analogue): 0.1 | MIC (MRSA KS6; Staphylococcus aureus, MRSA): 6.25 µM (≈ 2.11 µg/mL) | time-kill curve character (MRSA [5]): typical bacteriostatic time-kill curve | MIC (VE 82 (VanC1)): 12.5 µM (≈ 4.22 µg/mL) | MIC Range ([6]; 24 clinical MRSA isolates): 6.25 to 25 µM | MIC50 ([6]; Staphylococcus aureus, median MIC, 24 clinical MRSA isolates, read-out: MIC50): 25 µM (≈ 8.43 µg/mL) | TI (IC50/MIC50) ([6]; in vitro therapeutic index, MRSA): 8 | MIC (VE 148 (VanB)): 12.5 µM (≈ 4.22 µg/mL) | IC50 [7]: 157 ± 7 µM | MIC (VE 152 (VanB)): 12.5 µM (≈ 4.22 µg/mL) | IC50 [8]: 216 ± 48 µM | MIC-fold improvement vs. vancomycin (MRSA KS89; MRSA KS8 (head; KS89 in title), ratio of MIC of vancomycin and MIC of analogue): 0.1 | MIC (MRSA KS89; Staphylococcus aureus, MRSA): 6.25 µM (≈ 2.11 µg/mL) | MIC-fold improvement vs. vancomycin (MRSA KS2; MRSA KS2, ratio of MIC of vancomycin and MIC of analogue): 0.1 | MIC (MRSA KS2; Staphylococcus aureus, MRSA): 6.25 µM (≈ 2.11 µg/mL)
